What was measured:
[1] = system: primary human lung fibroblasts; test: Alamar blue assay; assay type: cell-based; details: 72 hours
Experimental: Alamar blue assay: Fibroblasts were cultured with and without TGF-β and/or gossypol for 72 hours and subsequently incubated with Alamar blue (Invitrogen, Grand Island, N.Y.). Alamar blue incorporation was determined by spectrophotometric analysis per the manufacturer's protocol.
Based on the foregoing results, it was believed that gossypol inhibits endogenous LDH activity, thus reducing lactate production and subsequent lactate-dependent activation of latent TGF-β in the medium. To investigate the mechanism of action of gossypol, fibroblasts were first treated with TGF-β for 72 hours. Next, protein lysates were harvested and incubated with increasing concentrations of gossypol for one hour. The LDH activity of each lysate was then determined with a standardized LDH kinetic activity assay. […] Next, it was investigated whether gossypol could prevent the extracellular accumulation of lactate by treated fibroblasts. […] To confirm that gossypol inhibits extracellular accumulation of lactate, the rate of extracellular acidification was measured using the commercially available Seahorse Bioassay. […] To determine whether the effects of gossypol were dependent on toxic effects on the cells, the Alamar blue assay was utilized.

[2] = system: primary human lung fibroblasts; test: Radiation-induced myofibroblast differentiation (α-SMA, LDHA Western blot); assay type: cell-based; details: SB431542 2.5 μM from 1 hour before 7 Gy, 5 days post radiation
Experimental: Cell Culture and Irradiations: Fibroblasts were cultured in Eagle's minimum essential media (Life Technologies, Gaithersburg, Md.) supplemented with 10% FBS (Sigma Aldrich, St. Louis, Mo.), 2 mM L-Glutamine, antibiotic and antimycotic (Gibco, Carlsbad, Calif.) at 37° C. with 7% CO2. Cells were irradiated with a ^137Cs γ-ray source at approximately 2.70 cGy/min dose rate at indicated doses. Human recombinant TGF-β1 (R&D systems, Minneapolis, Minn.) was used at 1 ng/ml. […] TGF-β1 receptor 1 was inhibited using SB431542 (Sigma Aldrich) at 2.5 μM starting 1 hour prior to irradiations.
Western Blotting: Cell lysates were run on SDS-PAGE under reducing conditions and probed for expression of α-SMA (Sigma Aldrich), LDHA (Abcam, Cambridge, Mass.). Glyceraldehyde 3-phosphate dehydrogenase (Abcam) was used as a loading control.

## Cc1cc2c(C(C)C)c(O)c(O)c(C=O)c2c(O)c1-c1c(C)cc2c(C(C)C)c(O)c(O)c(C=O)c2c1O [gossypol]
[1]; 1 mM gossypol
  Alamar blue reduction: no significant effect on Alamar blue reduction
[1]; 5 mM gossypol
  Alamar blue reduction: no significant effect on Alamar blue reduction
[1]; 10 mM gossypol
  decrease in Alamar blue reduction: 50%

## NC(=O)c1ccc(-c2nc(-c3ccc4c(c3)OCO4)c(-c3ccccn3)[nH]2)cc1 [SB431542]
[2]
  radiation-induced α-SMA expression: significantly attenuated radiation-induced α-SMA expression
